Earlier results in patent US20100284970A1, “BEN[…] H1 RECEPTOR AND/OR NS4B PROTEIN” (AUSPEX PHARMACEUTICALS, INC., priority 2009, published 2010).

Target: T1, hepatitis C virus NS4B protein (Hepatitis C virus genotype 1b, UniProt Q9WMX2)
T1 construct: hepatitis C virus NS4B protein
Conditions: Einav et al., Nature Biotechnology, 2008, 26, 1019-1027

T1 sequence (Q9WMX2 1712-1972): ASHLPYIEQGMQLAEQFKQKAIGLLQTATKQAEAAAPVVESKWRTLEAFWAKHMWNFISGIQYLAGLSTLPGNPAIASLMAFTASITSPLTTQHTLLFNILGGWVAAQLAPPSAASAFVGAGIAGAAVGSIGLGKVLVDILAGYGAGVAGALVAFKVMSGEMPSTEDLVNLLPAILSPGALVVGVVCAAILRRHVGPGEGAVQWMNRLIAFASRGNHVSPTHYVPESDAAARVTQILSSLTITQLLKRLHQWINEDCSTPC

Question: Which “binding of hepatitis C virus RNA to hepatitis C virus NS4B protein” value does the source give for `Clc1ccc(Cn2c(CN3CCCC3)nc3ccccc32)cc1` [Clemizole, 1-[(4-chlorophenyl)methyl]-2-(1-pyrrolidinylmethyl)benzimidazole] here?
Answer: inhibit the binding of hepatitis C virus RNA to hepatitis C virus NS4B protein
